Source: article PMC7709710 (Investigational new drugs, 2015)

Experiments:
Hsp70 mRNA = Hsp70 mRNA by RT-PCR in paired tumor biopsies; type: in vivo, human; details: one patient, dose level 3 (80 mg/m^2/dose), pre-dose vs day 17 of cycle 1
[1] = Plasma and urine pharmacokinetics in patients; type: in vivo, human
advanced solid tumors = experiment: Tumor response by RECIST 1.1; type: in vivo, human
[2] = system: patients with advanced solid tumors; details: human, in vivo, 4 weeks
Hsp90 = details: cited from earlier work
Hsp27 mRNA = Hsp27 mRNA by RT-PCR in paired tumor biopsies; type: in vivo, human; details: one patient, dose level 3 (80 mg/m^2/dose), pre-dose vs day 17 of cycle 1
Hsp70 protein = Hsp70 protein in PBMCs by Western blot; type: in vivo, human
patients = details: cited from earlier work
human xenograft models = details: several human xenograft models; cited from earlier work
Hsp90 client proteins = experiment: Reverse phase protein array; type: in vivo, human
[3] = pre- to post-treatment, RP2D, subgroup 1 (patients 21, 22, 31)
[4] = pre- to post-treatment, RP2D, subgroup 2 (patients 28, 24, 30, 27, 29)
[5] = subgroup 1 only (patients 21, 22, 31)

CC(C)c1cc(C(=O)N2Cc3ccc(CN4CCN(C)CC4)cc3C2)c(O)cc1O [onalespib]
induction of Hsp70 mRNA following treatment (Hsp70 mRNA): > 1.5 fold
urinary drug excretion ([1]; 24 h after drug administration): < 10%
plasma accumulation of drug with repeated dosing ([1]; day 1 vs day 15 of cycle 1): no significant plasma accumulation
plasma exposure to drug (AUC) versus dose ([1]; doses 20–210 mg/m^2): proportional to dose
half-life ([1]; human, plasma, intravenous): ~8 h
tumor responses (advanced solid tumors; 31 patients treated): No responses were observed
longest time on study (one patient with hepatocellular carcinoma) (advanced solid tumors; in vivo): 6 cycles
recommended phase 2 dose (RP2D) [2]: 160 mg/m^2/dose
Kd (Hsp90): 710 pM
induction of Hsp27 mRNA following treatment (Hsp27 mRNA): > 2 fold
Hsp70 protein expression in PBMCs at dose level 1 (Hsp70 protein; Patient #1, dose level 1 (20 mg/m^2)): no increase in Hsp70 expression
Hsp70 protein expression in PBMC samples (Hsp70 protein; patients at dose levels 2 through 5 (RP2D)): increased Hsp70 protein expression
patients with visual disturbances (patients; 120 mg/m^2/dose twice weekly): 10 of 13
maximum-tolerated-dose (patients; twice weekly dosing, days 1, 4, 8, 11, 15, 18 in 28 day cycles): 120 mg/m^2/dose
tumor growth inhibition, QDx2/week versus other schedules (human xenograft models): consistently greater tumor growth inhibition
within-patient expression changes of 210 client proteins (Hsp90 client proteins; 9 patients, RP2D, baseline vs cycle 1 day 16 or 17): no proteins with statistically significant changes
CHK2, mean log2-normalized expression change: group 1 (Hsp90 client proteins; [3]): 1.0062
MAP2K2, mean log2-normalized expression change: group 1 (Hsp90 client proteins; [3]): −0.2937
PRAS, mean log2-normalized expression change: group 1 (Hsp90 client proteins; [3]): 0.3038
RAB11A/B, mean log2-normalized expression change: group 1 (Hsp90 client proteins; [3]): −0.5853
Raf-1, mean log2-normalized expression change: group 1 (Hsp90 client proteins; [3]): −0.2670
STAT3, mean log2-normalized expression change: group 1 (Hsp90 client proteins; [3]): −0.6103
STAT5A, mean log2-normalized expression change: group 1 (Hsp90 client proteins; [3]): 0.5016
c-Src, mean log2-normalized expression change: group 1 (Hsp90 client proteins; [3]): −0.5997
eEF-2 kinase, mean log2-normalized expression change: group 1 (Hsp90 client proteins; [3]): 0.9679
serpin E1, mean log2-normalized expression change: group 1 (Hsp90 client proteins; [3]): −3.0031
CHK2, mean log2-normalized expression change: group 2 (Hsp90 client proteins; [4]): 0.1233
MAP2K2, mean log2-normalized expression change: group 2 (Hsp90 client proteins; [4]): 0.1770
PRAS, mean log2-normalized expression change: group 2 (Hsp90 client proteins; [4]): −0.1004
RAB11A/B, mean log2-normalized expression change: group 2 (Hsp90 client proteins; [4]): 0.0826
Raf-1, mean log2-normalized expression change: group 2 (Hsp90 client proteins; [4]): −0.0855
STAT3, mean log2-normalized expression change: group 2 (Hsp90 client proteins; [4]): 0.0176
STAT5A, mean log2-normalized expression change: group 2 (Hsp90 client proteins; [4]): −0.0725
c-Src, mean log2-normalized expression change: group 2 (Hsp90 client proteins; [4]): −0.0664
eEF-2 kinase, mean log2-normalized expression change: group 2 (Hsp90 client proteins; [4]): −0.0370
serpin E1, mean log2-normalized expression change: group 2 (Hsp90 client proteins; [4]): 0.2094
decrease in CHK1 phosphorylation after treatment (Hsp90 client proteins; [5]): > 2 fold
decrease in CHK2 phosphorylation after treatment (Hsp90 client proteins; [5]): > 2 fold
